The test has as its target FAS (Homo sapiens, UniProt P49327). Description: FAS assay (Assay #1 residual NADPH detection or Assay #2 CoA detection with thio-reactive coumarin dye). Type of test: biochemical. The conditions noted are these: average IC50 values, each compound tested two or more times; FAS Assay #1 or #2. How it is done:
FAS activity was measured through one of the two following assays.
Inhibition of FAS activity can be measured based on the detection of residual NADPH substrate after the FAS assay is quenched. This assay is run as a 10 μL, endpoint assay in 384-well format, where the reaction contains 20 μM malonyl-CoA, 2 μM acetyl-CoA, 30 μM NADPH and 40 nM FAS in 50 mM sodium phosphate, pH 7.0. The assay is run by sequentially dispensing 5 μl of a malonyl-CoA solution, then enzyme solution (containing the acetyl-CoA, and NADPH) into a black, low volume assay plate (Greiner 784076) pre-dispensed with 100 nL compound solutions in DMSO. The reaction is incubated at ambient temperature for 60 minutes, then quenched with 5 μL, of a developing solution composed of 90 μM resazurin, 0.3 IU/ml diaphorase in 50 mM sodium phosphate, pH 7.0. The developed reaction is read on a Molecular Devices Analyst or Acquest (or equivalent) plate reader using a 530 nm excitation wavelength filter, a 580 nm emission filter, and 561 nm dichroic filter. The test compounds are prepared in neat DMSO at a concentration of 10 mM. For inhibition curves, compounds are diluted using a three fold serial dilution and tested at 11 concentrations (e.g. 25 μM-0.42 nM). Curves are analysed using ActivityBase and XLfit, and results are expressed as pIC50 values.
Inhibition of FAS can also be quantified based on the detection of the CoA products with a thio-reactive coumarin dye. This assay is run as a 10 μL endpoint assay in 384-well format, where the reaction contains 20 μM malonyl-CoA, 20 μM acetyl-CoA, 40 μM NADPH and 2 nM FAS in 50 mM sodium phosphate, pH 7.0, and 0.04% Tween-20. The assay is run by adding 5 μL enzyme solution to a black, low volume assay plate (Greiner 784076) pre-dispensed with 100 nl compound solutions in DMSO. After 30 minutes, 5 μL substrate is added, and the reaction incubated at ambient temperature for an additional 60 minutes. The reaction is then quenched with 10 μL of 6M guanidine-HCl containing 50 μM CPM (7-diethylamino-3-(4′-maleimidylphenyl)-4-methylcoumarin (CPM; thio-reactive dye), and incubated for 30 minutes. The plate is read on an Envision (PerkinElmer) or equivalent plate reader using a 380 nm excitation wavelength filter, and a 486 nm emission filter. Data fitting and compound preparations are done as described above.

Each structure is given as a SMILES string.

By IC50 is commonly meant the point on the concentration scale where inhibition reaches its midpoint. Low readings indicate inhibition by little substance, high ones a need for much substance.

Chain of FAS (P49327 whole entry): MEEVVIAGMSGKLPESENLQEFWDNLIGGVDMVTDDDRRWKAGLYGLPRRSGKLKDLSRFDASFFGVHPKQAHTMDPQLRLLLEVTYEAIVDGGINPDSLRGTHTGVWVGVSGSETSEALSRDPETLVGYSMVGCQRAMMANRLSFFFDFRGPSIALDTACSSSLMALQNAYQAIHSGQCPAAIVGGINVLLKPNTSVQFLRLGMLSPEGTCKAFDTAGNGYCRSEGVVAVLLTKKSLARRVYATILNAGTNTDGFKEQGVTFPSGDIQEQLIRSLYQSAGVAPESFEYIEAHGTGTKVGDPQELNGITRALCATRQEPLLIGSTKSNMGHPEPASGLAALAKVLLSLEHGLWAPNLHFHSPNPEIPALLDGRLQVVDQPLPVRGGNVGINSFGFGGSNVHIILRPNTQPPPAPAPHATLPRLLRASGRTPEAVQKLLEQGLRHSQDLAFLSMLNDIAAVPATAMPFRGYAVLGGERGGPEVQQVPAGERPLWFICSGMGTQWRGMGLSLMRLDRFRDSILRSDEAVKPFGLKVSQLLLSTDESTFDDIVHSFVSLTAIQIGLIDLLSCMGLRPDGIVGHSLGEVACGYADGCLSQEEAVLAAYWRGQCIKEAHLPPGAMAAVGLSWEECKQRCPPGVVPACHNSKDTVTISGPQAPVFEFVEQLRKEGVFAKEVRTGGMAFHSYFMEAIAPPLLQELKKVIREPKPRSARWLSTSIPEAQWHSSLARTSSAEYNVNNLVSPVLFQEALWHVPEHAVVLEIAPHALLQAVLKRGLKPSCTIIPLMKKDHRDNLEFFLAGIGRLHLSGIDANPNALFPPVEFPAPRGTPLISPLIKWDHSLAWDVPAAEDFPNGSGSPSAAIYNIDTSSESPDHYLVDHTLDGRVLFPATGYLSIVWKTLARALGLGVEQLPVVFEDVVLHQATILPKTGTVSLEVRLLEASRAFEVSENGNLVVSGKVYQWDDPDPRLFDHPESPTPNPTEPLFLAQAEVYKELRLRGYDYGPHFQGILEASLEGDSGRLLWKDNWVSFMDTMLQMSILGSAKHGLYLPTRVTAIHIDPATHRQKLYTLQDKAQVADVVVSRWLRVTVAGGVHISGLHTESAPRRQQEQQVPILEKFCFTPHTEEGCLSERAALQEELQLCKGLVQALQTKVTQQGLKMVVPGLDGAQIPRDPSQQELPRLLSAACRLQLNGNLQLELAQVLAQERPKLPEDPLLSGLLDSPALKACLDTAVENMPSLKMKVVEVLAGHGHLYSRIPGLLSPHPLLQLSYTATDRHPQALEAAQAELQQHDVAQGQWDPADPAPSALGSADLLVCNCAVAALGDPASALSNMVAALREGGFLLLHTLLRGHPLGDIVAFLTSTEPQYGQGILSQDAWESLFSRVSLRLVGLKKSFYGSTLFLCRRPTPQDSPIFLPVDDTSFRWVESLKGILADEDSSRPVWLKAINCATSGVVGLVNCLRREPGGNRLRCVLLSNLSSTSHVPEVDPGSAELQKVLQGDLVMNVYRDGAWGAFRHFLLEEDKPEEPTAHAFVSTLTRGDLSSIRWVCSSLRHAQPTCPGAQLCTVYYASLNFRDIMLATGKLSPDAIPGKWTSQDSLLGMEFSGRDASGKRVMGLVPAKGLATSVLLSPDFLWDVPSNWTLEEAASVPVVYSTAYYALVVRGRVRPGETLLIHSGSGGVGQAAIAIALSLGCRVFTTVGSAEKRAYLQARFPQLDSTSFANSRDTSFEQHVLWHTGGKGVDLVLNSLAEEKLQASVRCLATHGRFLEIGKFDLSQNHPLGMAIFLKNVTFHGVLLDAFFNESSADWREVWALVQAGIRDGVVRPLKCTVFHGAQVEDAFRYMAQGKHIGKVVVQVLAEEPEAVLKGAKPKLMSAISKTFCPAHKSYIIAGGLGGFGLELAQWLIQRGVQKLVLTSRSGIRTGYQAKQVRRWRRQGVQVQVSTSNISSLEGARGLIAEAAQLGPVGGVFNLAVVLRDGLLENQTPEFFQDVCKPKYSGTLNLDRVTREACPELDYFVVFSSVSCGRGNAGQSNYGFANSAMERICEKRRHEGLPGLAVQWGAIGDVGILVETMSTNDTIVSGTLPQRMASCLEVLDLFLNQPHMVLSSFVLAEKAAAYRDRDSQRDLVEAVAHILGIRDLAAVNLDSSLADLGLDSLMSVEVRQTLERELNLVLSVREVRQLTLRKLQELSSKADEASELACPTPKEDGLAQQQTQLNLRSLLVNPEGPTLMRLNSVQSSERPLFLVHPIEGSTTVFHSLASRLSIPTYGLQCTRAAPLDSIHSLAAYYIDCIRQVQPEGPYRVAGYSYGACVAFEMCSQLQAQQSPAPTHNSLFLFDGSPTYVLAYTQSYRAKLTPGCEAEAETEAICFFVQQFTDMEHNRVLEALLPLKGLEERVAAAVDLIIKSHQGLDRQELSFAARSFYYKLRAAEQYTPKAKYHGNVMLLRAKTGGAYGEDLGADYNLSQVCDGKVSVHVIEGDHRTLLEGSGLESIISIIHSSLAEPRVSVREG

`CCN1CC2(CCN(S(=O)(=O)c3ccc(-c4ccc5occc5c4)cc3)CC2)OCC1=O` [Example 3, 9-{[4-(1-benzofuran-5-yl)phenyl]sulfonyl}-4-ethyl-1-oxa-4,9-diazaspiro[5.5]undecan-3-one] gave an IC50 of 251 nM.

For the compound `O=C1COC2(CCN(S(=O)(=O)c3ccc(-c4ccccc4)cc3)CC2)CN1C1CC1` [Example 13, 9-(4-biphenylylsulfonyl)-4-cyclopropyl-1-oxa-4,9-diazaspiro[5.5]undecan-3-one], the IC50 was 1260 nM.

In turn, `O=C1COC2(CCN(S(=O)(=O)c3ccc(-c4ccc5cc[nH]c5c4)cc3)CC2)CN1C1CC1` [Example 14, 4-cyclopropyl-9-{[4-(1H-indol-6-yl)phenyl]sulfonyl}-1-oxa-4,9-diazaspiro[5.5]undecan-3-one] registered an IC50 of 40 nM.

As for `O=C1COC2(CCN(S(=O)(=O)c3ccc(-c4cc5ccccc5o4)cc3)CC2)CN1C1CC1` [Example 26, 9-{[4-(1-benzofuran-2-yl)phenyl]sulfonyl}-4-cyclopropyl-1-oxa-4,9-diazaspiro[5.5]undecan-3-one], half-maximal inhibition (IC50) required 200 nM.

The compound `O=C1COC2(CCN(S(=O)(=O)c3ccc(-c4ccc5cccnc5c4)cc3)CC2)CN1C1CC1` [Example 29, 4-cyclopropyl-9-{[4-(7-quinolinyl)phenyl]sulfonyl}-1-oxa-4,9-diazaspiro[5.5]undecan-3-one] yielded an IC50 of 10 nM.

In turn, `O=C1COC2(CCN(S(=O)(=O)c3ccc(-c4ccc5cccnc5c4)cc3F)CC2)CN1C1CC1` [Example 59, 4-cyclopropyl-9-{[2-fluoro-4-(7-quinolinyl)phenyl]sulfonyl}-1-oxa-4,9-diazaspiro[5.5]undecan-3-one] returned an IC50 of 13 nM.

Compound `O=C1COC2(CCN(S(=O)(=O)c3ccc(-c4ccc5[nH]ccc5c4)cc3F)CC2)CN1C1CC1` [Example 70, 4-cyclopropyl-9-{[2-fluoro-4-(1H-indol-5-yl)phenyl]sulfonyl}-1-oxa-4,9-diazaspiro[5.5]undecan-3-one] showed an IC50 of 32 nM.

In turn, `O=C1COC2(CCN(S(=O)(=O)c3ccc(-c4ccc5scnc5c4)cc3F)CC2)CN1C1CC1` [Example 76, 9-{[4-(1,3-benzothiazol-5-yl)-2-fluorophenyl]sulfonyl}-4-cyclopropyl-1-oxa-4,9-diazaspiro[5.5]undecan-3-one] came in with an IC50 of 32 nM.

Compound `O=C1COC2(CCN(S(=O)(=O)c3ccc(-c4ccc5cnccc5c4)cc3)CC2)CN1C1CC1` [Example 86, 4-cyclopropyl-9-{[4-(6-isoquinolinyl)phenyl]sulfonyl}-1-oxa-4,9-diazaspiro[5.5]undecan-3-one] gave an IC50 of 6 nM.

With `Cn1nc(NS(C)(=O)=O)c2cc(-c3ccc(S(=O)(=O)N4CCC5(CC4)CN(C4CC4)C(=O)CO5)cc3)ccc21` [Example 105, N-(5-{4-[(4-cyclopropyl-3-oxo-1-oxa-4,9-diazaspiro[5.5]undec-9-yl)sulfonyl]phenyl}-1-methyl-1H-indazol-3-yl)methanesulfonamide], inhibition was half-maximal at 63 nM (IC50).

The record behind these values is US20130237535A1, “FATTY ACID SYNTHASE INHIBITORS” (priority 2010, published 2013).
